Experimental data: ChEMBL document CHEMBL4507268 (2021)

Tests used:
[1] = molecular target: Macrophage colony-stimulating factor 1 receptor (Homo sapiens) (UniProt P07333); conditions: Compound concentration 1000.0 nM
[2] = molecular target: Phosphatidylinositol 4-phosphate 5-kinase type-1 alpha (Homo sapiens) (UniProt Q99755); conditions: Compound concentration 1000.0 nM
[3] = system: Epidermal growth factor receptor (Homo sapiens), P00533 [L858R]; conditions: Compound concentration 1000.0 nM
[4] = molecular target: T1, Ephrin type-A receptor 8 (Homo sapiens) (UniProt P29322); conditions: Compound concentration 1000.0 nM
T1 sequence (whole entry): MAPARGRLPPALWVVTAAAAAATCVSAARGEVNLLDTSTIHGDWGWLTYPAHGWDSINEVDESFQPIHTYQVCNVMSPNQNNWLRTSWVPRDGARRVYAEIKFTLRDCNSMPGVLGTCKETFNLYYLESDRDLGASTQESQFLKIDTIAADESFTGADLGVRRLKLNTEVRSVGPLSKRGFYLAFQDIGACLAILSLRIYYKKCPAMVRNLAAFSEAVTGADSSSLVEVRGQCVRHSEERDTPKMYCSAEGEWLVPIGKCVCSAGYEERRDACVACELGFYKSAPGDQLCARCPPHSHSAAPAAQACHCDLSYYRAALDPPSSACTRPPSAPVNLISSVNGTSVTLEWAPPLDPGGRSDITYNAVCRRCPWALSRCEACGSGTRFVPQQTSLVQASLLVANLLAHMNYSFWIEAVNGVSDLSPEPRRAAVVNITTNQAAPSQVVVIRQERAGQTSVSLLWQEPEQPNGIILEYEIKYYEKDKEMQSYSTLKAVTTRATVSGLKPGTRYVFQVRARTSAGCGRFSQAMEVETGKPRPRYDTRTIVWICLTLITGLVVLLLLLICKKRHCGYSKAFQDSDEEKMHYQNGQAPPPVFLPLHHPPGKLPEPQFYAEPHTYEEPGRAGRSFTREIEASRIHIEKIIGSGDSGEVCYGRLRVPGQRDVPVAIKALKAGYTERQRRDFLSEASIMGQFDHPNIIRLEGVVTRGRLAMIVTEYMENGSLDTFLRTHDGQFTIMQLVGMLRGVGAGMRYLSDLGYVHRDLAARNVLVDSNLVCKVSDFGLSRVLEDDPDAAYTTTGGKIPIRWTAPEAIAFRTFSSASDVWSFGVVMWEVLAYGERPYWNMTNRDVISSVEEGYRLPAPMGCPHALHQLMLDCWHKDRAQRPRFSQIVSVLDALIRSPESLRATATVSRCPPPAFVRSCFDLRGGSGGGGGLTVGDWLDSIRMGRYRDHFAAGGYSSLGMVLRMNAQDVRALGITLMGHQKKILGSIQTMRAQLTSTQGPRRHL

[5] = molecular target: SRSF protein kinase 3 (Homo sapiens) (UniProt Q9UPE1); conditions: Compound concentration 1000.0 nM
[6] = molecular target: Receptor-type tyrosine-protein kinase FLT3 (Homo sapiens) (UniProt P36888); conditions: Compound concentration 1000.0 nM
[7] = molecular target: Delta-type opioid receptor (Homo sapiens) (UniProt P41143); conditions: Compound concentration 10.0 uM
[8] = system: eIF-2-alpha kinase GCN2 (Homo sapiens), Q9P2K8 [S808G]; conditions: Compound concentration 1000.0 nM
[9] = molecular target: T2, Serine/threonine-protein kinase Nek11 (Homo sapiens) (UniProt Q8NG66); conditions: Compound concentration 1000.0 nM
T2 sequence (whole entry): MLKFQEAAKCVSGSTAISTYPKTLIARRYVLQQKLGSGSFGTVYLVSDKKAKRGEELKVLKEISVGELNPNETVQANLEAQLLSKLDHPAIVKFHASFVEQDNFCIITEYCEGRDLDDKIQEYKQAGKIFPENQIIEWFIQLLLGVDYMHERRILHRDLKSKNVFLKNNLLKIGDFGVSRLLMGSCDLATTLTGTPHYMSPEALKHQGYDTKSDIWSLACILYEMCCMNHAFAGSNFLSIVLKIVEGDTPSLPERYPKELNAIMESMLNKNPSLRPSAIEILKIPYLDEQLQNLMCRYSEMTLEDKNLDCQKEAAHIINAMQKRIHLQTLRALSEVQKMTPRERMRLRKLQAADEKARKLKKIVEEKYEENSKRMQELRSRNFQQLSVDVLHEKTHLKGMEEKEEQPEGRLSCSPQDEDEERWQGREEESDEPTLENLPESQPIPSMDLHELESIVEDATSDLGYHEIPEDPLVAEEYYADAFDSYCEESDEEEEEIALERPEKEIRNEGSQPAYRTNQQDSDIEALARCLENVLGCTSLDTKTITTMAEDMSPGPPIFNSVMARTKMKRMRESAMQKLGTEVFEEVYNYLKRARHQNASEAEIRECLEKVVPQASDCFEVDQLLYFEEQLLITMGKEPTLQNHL

[10] = molecular target: Tyrosine-protein kinase FRK (Homo sapiens) (UniProt P42685); conditions: Compound concentration 1000.0 nM
[11] = molecular target: Mitogen-activated protein kinase 10 (Homo sapiens) (UniProt P53779); conditions: Compound concentration 1000.0 nM
[12] = molecular target: Cyclin-dependent kinase 9 (Homo sapiens) (UniProt P50750); conditions: Compound concentration 1000.0 nM
[13] = molecular target: Muscarinic acetylcholine receptor M3 (Homo sapiens) (UniProt P20309); conditions: Compound concentration 10.0 uM
[14] = molecular target: Protein kinase C theta type (Homo sapiens) (UniProt Q04759); conditions: Compound concentration 1000.0 nM
[15] = molecular target: Alpha-2A adrenergic receptor (Homo sapiens) (UniProt P08913); conditions: Compound concentration 10.0 uM
[16] = molecular target: RAF proto-oncogene serine/threonine-protein kinase (Homo sapiens) (UniProt P04049); conditions: Compound concentration 1000.0 nM
[17] = system: Epidermal growth factor receptor (Homo sapiens), P00533 [L858R,T790M]; conditions: Compound concentration 1000.0 nM
[18] = molecular target: Receptor-interacting serine/threonine-protein kinase 4 (Homo sapiens) (UniProt P57078); conditions: Compound concentration 1000.0 nM

Mitogen-activated protein kinase 10 (Homo sapiens), sequence (P53779 whole entry): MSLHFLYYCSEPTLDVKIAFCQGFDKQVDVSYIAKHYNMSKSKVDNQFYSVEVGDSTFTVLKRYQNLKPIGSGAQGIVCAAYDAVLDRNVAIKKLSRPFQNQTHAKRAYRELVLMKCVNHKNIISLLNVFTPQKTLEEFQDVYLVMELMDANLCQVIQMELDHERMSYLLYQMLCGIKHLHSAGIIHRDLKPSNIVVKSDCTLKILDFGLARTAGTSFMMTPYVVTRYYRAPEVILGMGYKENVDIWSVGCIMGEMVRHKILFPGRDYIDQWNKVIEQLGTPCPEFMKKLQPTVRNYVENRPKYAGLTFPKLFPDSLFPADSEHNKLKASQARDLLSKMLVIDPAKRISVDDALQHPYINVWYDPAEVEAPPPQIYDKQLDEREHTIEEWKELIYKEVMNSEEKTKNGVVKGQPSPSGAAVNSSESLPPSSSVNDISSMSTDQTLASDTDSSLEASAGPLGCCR
Receptor-type tyrosine-protein kinase FLT3 (Homo sapiens), sequence (P36888 whole entry): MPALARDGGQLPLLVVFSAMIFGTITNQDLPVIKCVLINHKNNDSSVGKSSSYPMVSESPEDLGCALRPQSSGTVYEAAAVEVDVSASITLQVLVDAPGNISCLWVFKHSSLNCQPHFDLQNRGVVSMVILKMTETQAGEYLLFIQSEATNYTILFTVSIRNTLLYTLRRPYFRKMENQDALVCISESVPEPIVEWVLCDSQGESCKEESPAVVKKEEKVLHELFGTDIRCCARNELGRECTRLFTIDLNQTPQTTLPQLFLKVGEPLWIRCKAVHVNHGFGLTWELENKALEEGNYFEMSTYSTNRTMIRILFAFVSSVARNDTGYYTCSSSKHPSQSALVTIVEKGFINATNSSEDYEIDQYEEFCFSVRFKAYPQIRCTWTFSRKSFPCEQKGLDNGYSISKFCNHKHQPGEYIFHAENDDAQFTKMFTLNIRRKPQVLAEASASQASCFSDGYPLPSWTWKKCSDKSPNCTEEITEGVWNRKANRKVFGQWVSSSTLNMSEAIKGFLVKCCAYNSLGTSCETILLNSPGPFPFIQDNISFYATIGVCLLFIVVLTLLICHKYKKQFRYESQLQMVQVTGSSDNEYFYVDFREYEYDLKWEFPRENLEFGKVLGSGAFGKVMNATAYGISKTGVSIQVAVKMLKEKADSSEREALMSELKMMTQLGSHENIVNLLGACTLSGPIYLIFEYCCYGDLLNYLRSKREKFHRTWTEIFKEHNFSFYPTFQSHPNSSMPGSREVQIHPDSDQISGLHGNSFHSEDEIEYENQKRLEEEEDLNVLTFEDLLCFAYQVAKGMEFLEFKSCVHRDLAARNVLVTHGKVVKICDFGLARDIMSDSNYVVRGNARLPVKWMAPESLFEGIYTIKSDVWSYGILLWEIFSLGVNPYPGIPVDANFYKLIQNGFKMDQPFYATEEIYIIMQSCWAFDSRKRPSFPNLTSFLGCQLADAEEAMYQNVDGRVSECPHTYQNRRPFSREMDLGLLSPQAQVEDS
eIF-2-alpha kinase GCN2 (Homo sapiens), Q9P2K8 [S808G], sequence (Q9P2K8 whole entry S808G): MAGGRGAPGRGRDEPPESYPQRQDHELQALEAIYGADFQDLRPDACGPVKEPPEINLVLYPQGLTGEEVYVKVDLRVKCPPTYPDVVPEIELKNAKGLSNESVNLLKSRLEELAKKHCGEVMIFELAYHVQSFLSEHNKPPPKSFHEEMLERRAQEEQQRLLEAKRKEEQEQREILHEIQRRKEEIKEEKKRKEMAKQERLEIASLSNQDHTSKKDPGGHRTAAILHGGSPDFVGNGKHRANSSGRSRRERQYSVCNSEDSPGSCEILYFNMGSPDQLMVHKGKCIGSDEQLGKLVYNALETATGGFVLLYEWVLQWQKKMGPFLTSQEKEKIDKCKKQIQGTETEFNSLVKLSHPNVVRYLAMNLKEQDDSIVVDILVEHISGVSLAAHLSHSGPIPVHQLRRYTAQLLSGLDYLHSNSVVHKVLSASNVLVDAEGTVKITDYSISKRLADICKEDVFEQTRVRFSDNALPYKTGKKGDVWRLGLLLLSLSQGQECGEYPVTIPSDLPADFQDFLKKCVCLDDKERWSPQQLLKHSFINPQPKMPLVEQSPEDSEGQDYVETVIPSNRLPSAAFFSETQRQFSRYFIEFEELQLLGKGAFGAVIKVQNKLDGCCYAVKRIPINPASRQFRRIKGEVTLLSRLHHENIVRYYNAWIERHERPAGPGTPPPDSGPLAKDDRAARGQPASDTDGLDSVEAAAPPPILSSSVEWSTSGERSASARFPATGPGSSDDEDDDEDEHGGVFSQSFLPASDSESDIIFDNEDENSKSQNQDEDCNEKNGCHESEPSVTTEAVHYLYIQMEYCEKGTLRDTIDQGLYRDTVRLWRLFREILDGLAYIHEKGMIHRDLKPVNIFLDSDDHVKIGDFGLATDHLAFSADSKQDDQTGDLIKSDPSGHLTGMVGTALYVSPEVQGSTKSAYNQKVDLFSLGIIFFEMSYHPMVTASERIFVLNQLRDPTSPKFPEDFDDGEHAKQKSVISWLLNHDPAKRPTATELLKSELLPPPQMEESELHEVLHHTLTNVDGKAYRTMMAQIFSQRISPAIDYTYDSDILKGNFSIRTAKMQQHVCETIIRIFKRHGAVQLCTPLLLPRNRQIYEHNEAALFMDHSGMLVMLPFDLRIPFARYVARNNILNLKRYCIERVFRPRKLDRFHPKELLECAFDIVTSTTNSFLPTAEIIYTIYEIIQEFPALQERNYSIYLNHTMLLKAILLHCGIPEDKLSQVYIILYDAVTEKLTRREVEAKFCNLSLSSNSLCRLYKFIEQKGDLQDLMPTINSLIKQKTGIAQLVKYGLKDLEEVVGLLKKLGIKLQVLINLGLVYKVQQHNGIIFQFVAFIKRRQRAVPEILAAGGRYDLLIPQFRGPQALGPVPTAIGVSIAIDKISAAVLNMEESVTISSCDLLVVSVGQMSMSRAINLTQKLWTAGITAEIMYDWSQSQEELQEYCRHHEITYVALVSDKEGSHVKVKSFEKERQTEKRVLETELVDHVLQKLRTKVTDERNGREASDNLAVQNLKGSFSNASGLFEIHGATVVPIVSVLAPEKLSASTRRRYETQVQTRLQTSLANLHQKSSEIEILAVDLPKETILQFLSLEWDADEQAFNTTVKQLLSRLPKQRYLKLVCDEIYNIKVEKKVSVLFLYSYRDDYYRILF
Cyclin-dependent kinase 9 (Homo sapiens), sequence (P50750 whole entry): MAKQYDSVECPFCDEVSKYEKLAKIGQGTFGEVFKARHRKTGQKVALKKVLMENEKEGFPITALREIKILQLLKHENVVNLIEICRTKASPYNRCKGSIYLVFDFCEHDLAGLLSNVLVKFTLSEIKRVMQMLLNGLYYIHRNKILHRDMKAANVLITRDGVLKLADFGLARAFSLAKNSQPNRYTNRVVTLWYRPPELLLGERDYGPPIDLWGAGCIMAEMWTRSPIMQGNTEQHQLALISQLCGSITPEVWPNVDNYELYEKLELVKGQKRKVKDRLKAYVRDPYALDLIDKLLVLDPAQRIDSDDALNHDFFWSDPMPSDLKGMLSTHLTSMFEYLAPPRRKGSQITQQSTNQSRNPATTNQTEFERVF
Delta-type opioid receptor (Homo sapiens), sequence (P41143 whole entry): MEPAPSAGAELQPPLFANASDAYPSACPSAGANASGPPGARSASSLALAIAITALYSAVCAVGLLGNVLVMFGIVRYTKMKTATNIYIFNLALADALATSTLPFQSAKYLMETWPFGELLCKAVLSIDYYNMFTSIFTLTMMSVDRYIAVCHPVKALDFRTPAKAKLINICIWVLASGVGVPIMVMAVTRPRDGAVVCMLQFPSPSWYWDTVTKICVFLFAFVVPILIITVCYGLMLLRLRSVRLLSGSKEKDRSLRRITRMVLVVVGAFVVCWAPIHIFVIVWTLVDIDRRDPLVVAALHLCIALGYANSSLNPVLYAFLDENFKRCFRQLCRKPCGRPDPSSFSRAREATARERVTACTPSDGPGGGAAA
Muscarinic acetylcholine receptor M3 (Homo sapiens), sequence (P20309 whole entry, looked up): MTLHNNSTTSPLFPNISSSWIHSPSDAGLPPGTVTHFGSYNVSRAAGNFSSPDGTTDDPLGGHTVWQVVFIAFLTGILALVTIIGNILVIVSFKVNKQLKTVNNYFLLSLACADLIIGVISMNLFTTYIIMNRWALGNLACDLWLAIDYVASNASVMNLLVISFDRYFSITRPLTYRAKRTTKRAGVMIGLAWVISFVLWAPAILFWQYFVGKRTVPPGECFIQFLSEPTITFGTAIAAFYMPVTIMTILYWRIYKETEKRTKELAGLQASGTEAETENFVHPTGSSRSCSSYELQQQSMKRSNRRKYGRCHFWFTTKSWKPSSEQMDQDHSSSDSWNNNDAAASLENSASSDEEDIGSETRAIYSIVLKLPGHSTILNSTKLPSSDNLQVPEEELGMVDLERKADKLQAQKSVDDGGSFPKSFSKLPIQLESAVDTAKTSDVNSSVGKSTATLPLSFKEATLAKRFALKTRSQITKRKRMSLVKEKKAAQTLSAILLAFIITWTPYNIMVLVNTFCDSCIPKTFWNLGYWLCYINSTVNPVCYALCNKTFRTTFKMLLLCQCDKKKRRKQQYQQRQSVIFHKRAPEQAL
Phosphatidylinositol 4-phosphate 5-kinase type-1 alpha (Homo sapiens), sequence (Q99755 whole entry): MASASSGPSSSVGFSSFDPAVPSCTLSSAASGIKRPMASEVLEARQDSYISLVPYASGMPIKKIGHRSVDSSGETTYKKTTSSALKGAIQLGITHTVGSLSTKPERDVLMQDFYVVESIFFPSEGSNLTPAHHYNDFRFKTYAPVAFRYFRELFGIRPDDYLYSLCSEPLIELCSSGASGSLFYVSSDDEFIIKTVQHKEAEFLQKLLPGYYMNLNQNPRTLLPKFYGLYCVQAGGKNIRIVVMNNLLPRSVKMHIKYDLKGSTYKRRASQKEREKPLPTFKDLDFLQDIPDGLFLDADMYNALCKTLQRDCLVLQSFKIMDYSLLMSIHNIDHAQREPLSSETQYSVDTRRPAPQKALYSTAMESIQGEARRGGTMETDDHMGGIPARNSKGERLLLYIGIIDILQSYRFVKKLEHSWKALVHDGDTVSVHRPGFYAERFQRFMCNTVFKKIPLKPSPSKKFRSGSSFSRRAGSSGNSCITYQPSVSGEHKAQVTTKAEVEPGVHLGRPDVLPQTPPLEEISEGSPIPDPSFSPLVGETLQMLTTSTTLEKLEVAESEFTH

Cc1nc(C2CCN(C(=O)c3ccc(OC(F)(F)F)cc3N)CC2)c2ncc(N3CCN(C)CC3)cc2n1 [BAY-693]
inactive: residual activity [1] 99% | residual activity [2] 63% | residual activity [3] 89% | residual activity [4] 98% | residual activity [5] 100% | residual activity [6] 83% | inhibition [7] 4.34% | residual activity [8] 90% | residual activity [9] 100% | residual activity [10] 95% | residual activity [11] 100% | residual activity [12] 79% | inhibition [13] 18.6% | residual activity [14] 93% | inhibition [15] -6.02% | residual activity [16] 77% | residual activity [17] 88% | residual activity [18] 84%

CN1CCN(c2cnc3c(C4CCN(C(=O)c5ccc(OC(F)(F)F)cc5N)CC4)ncnc3c2)CC1 [BAY-885]
inactive: residual activity [1] 100% | residual activity [2] 64% | residual activity [3] 100% | residual activity [4] 100% | residual activity [5] 100% | residual activity [6] 100% | inhibition [7] 0.94% | residual activity [8] 99% | residual activity [9] 100% | residual activity [10] 100% | residual activity [11] 100% | residual activity [12] 100% | inhibition [13] 27.1% | residual activity [14] 91% | inhibition [15] -3.41% | residual activity [16] 75% | residual activity [17] 95% | residual activity [18] 100%
